In general, Ki refers to a measure of affinity in units of concentration, obtained from inhibition or displacement. A higher Ki goes with weaker binding. Usually inhibition stands for how much of the control response was suppressed. Lower therefore signals a weak effect. Usually bioavailability stands for the share of a dose that reaches the circulation, judged against a reference dose that is usually intravenous.

These results are taken from ChEMBL document CHEMBL1154622, “Structure-guided design of potent and selective pyrimidylpyrrole inhibitors of extracellular signal-regulated kinase (ERK) using conformational control” (J Med Chem, 2009).

The target in data set [1] is Mitogen-activated protein kinase kinase kinase 14 (Homo sapiens, UniProt Q99558). Nature of the data set: Inhibition of NIK.
Sequence of Mitogen-activated protein kinase kinase kinase 14 (Q99558 whole entry): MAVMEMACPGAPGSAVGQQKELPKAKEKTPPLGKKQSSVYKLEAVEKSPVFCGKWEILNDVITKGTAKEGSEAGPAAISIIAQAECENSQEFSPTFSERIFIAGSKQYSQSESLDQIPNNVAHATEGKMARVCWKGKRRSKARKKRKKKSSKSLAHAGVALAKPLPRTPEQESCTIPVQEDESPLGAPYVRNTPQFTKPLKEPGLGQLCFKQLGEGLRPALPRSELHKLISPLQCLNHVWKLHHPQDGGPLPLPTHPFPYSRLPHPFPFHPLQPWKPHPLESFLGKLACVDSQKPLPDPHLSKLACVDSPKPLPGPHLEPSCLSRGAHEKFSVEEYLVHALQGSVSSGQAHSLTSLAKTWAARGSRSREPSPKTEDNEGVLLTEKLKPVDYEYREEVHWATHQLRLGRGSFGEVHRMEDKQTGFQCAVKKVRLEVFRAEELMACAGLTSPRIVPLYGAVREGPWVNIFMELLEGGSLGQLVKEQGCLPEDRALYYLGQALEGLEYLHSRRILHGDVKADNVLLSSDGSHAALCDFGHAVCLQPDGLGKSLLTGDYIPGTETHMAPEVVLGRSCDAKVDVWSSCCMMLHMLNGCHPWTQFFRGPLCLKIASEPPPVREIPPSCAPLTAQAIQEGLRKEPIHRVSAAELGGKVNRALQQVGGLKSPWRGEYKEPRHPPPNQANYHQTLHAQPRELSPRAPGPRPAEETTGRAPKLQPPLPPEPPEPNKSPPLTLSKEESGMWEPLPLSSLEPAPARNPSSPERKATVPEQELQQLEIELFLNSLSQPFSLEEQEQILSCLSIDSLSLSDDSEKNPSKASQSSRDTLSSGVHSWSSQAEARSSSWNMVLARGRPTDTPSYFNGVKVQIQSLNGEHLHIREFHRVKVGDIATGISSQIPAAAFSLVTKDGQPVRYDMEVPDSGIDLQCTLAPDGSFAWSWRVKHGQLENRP
Data set [2] concerns the target Tyrosine-protein kinase Mer (Homo sapiens) (UniProt Q12866). Description: Inhibition of MER at 1 uM.
Data set [3] has as its target Misshapen-like kinase 1 (Homo sapiens) (UniProt Q8N4C8). Description: Inhibition of MINK at 1 uM.
Data set [4] is described as follows: Oral bioavailability in mouse at 33 mg/kg. The class given is ADME, organism-based. As to conditions: in vivo.

Sequence of Misshapen-like kinase 1 (Homo sapiens) (Q8N4C8 whole entry, looked up): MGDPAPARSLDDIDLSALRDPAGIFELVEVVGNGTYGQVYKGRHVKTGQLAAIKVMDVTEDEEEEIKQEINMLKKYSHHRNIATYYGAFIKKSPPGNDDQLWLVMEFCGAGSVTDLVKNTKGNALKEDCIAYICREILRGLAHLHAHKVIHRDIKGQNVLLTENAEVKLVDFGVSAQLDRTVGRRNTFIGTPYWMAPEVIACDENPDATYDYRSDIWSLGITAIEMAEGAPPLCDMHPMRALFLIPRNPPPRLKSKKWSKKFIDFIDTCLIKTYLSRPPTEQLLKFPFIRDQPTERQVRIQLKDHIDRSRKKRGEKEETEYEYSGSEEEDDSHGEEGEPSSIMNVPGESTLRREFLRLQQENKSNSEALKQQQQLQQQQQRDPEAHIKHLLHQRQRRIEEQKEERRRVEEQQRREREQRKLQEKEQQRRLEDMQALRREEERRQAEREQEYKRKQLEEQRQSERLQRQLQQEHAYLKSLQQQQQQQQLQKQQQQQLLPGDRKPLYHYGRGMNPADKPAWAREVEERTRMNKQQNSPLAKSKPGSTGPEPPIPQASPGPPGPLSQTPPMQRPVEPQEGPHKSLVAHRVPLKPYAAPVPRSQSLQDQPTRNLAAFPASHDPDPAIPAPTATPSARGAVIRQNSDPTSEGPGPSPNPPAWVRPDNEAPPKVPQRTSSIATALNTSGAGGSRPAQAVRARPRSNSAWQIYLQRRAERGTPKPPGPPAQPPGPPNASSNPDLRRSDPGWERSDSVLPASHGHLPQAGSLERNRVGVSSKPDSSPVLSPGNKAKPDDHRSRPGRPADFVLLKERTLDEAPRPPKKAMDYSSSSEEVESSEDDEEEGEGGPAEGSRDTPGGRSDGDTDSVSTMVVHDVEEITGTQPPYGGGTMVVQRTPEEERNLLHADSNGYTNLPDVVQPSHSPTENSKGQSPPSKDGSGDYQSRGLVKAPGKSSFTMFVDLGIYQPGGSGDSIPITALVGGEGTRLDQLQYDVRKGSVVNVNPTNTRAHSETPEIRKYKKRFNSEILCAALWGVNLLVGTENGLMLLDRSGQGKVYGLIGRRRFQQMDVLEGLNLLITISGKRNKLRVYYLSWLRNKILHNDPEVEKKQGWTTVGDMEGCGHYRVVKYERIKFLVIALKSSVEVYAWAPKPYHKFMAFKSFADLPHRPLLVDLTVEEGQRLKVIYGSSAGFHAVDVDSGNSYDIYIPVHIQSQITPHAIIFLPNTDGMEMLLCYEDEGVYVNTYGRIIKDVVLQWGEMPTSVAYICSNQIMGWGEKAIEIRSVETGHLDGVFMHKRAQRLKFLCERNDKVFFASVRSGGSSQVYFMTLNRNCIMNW
Sequence of Tyrosine-protein kinase Mer (Homo sapiens) (Q12866 whole entry): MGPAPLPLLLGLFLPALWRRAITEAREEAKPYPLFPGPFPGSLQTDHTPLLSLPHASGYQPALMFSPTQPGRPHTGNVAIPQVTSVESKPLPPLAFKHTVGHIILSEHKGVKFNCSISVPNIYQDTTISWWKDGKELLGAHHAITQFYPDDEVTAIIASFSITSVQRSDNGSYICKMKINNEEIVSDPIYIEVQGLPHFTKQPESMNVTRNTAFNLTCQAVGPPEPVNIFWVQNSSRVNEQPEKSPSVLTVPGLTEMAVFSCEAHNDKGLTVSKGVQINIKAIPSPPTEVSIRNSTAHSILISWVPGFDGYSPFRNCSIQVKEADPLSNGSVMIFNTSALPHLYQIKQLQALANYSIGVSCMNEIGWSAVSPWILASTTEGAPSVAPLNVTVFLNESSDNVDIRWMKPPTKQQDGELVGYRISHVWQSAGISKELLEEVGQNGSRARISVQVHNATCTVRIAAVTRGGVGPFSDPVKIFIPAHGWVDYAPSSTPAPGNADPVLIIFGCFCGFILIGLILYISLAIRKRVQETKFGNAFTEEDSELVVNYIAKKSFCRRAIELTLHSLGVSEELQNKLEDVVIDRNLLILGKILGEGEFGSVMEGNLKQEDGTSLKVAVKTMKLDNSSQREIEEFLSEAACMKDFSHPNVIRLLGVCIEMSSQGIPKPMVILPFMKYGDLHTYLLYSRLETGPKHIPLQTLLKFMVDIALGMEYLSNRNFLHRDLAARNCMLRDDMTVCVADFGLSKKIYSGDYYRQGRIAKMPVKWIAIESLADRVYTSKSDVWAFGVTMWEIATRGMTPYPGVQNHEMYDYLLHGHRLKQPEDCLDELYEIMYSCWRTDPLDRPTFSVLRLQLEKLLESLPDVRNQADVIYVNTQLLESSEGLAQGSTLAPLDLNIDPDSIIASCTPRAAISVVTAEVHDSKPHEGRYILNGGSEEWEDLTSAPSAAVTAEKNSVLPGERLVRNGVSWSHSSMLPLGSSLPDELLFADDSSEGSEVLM

`Cc1cnc(Nc2ccc(F)cc2Cl)nc1-c1c[nH]c(C(=O)N[C@H](CO)c2cccc(Cl)c2)c1` displayed a Ki in data set [1] greater than 5 µM. The inhibition is 9% in data set [2] and 18% in data set [3]. In data set [4], this compound came in with a bioavailability of 67%.
